The test deals with GHS-R (Homo sapiens, UniProt Q92847). Nature of the test: cell based assay of GHS-R antagonist/agonist activity. Also on record: key: A refers to a compound having antagonist activity with Ki<100 nM in a cell based assay; B refers to a compound having agonist activity with EC50<100 nM in a cell based assay; C refers to a compound having antagonist activity of Ki>100 nM and <1500 nM in a cell based assay; D refers to a compound having antagonist activity with Ki, <100 nM and agonist activity with EC50<100 nM in a cell-based assay; E refers to other exemplary compounds. Conditions: GHS-R antagonist Ki and/or agonist EC50 class. The protocol:
Cell-Based Activity Assays. For example, the ability of the compound to modulate accumulation of a second messenger signaling component downstream of GHS-R can be evaluated. For example, inositol phosphates (IP), as a result of Gq signaling in a mammalian cell, e.g., a Cos-7 cells. Other tissue culture cells, Xenopus oocytes, and primary cells can also be used.
Phosphatidylinositol turnover assay. One day after transfection COS-7 cells are incubated for 24 hours with 5 μCi of [^3H]-myo-inositol in 1 ml medium supplemented with 10% fetal calf serum, 2 mM glutamine and 0.01 mg/ml gentamicin per well. Cells are then washed twice in buffer, 20 mM HEPES, pH 7.4, supplemented with 140 mM NaCl, 5 mM KCl, 1 mM MgSO4, 1 mM CaCl2, mM glucose, 0.05% (w/v) bovine serum; and incubated in 0.5 ml buffer supplemented with 10 mM LiCl at 37° C. for 30 min. For some assays, it is also useful to incubate the cells with adenosine deaminase ADA (200 U/mg, Boehringer Mannheim, Germany) for 30 min in a concentration of 1 U/ml.
After incubation with the compound of interest for 45 min at 37° C., cells are extracted with 10% ice-cold perchloric acid and placed on ice for 30 min. The resulting supernatants are neutralized with KOH in HEPES buffer, and [^3H]-inositol phosphate is purified on Bio-Rad AG 1-X8 anion exchange resin as described. Assays can be run in duplicate, triplicate, etc.
Other second messenger assays. Another second messenger that can be evaluated is Ca^2+. Ca^2+ mobilization can be evaluated using a calcium sensitive detector, such as aequorin protein or a dye, e.g., FURA-2. In an exemplary assay, calcium mobilization is evaluated in a recombinant cell that expresses GHS-R and aequorin.
Gene expression assay. HEK293 cells (30 000 cells/well) seeded in 96-well plates are transiently transfected with a mixture of pFA2-CREB and pFR-Luc reporter plasmid (PathDetect™ CREB trans-Reporting System, Stratagene) and nucleic acid encoding GHS. One day after transfection, cells are treated with the compound of interest in an assay volume of 100 μl medium for 5 hrs. After treatment, cells are cultured in low serum (2.5%). After the incubation period, the assay is ended by washing the cells twice with PBS and adding 100 μl luciferase assay reagent (LucLite™, Packard Bioscience). Luminescence is measured (e.g., as relative light units (RLU)) using in a luminometer such as the TopCounter™ (Packard Bioscience) for 5 sec.
IC50 and EC50 values can be determined by nonlinear regression, e.g., using the Prism 3.0 software (GraphPad Software, San Diego).

These results are taken from patent publication US7897765B2, “Therapeutic compounds and uses thereof” (Elixir Pharmaceuticals, Inc., priority 2003, dated 2011).

Sequence of GHS-R (Q92847 whole entry, species assumed): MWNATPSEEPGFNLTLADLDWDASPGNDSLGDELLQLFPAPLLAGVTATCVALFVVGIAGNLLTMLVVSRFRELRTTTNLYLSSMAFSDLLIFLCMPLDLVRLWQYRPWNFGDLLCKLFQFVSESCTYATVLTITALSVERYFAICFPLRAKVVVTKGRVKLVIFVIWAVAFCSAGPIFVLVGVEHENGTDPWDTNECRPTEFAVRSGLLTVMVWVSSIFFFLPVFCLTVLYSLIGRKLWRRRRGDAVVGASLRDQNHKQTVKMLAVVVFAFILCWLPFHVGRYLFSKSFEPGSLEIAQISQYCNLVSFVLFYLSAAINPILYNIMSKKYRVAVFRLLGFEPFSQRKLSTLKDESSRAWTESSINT

With `CS(=O)(=O)N1CC2(CCN(C(=O)[C@@H](COCc3ccccc3)NS(=O)(=O)CCN3CCC3)CC2)c2ccccc21` [Compound 105], the Activity result is reported as “E”. For the compound `CC(C)(C)OC(=O)NC(C)(C)C(=O)N[C@H](COCc1ccccc1)C(=O)N1CCC2(CC1)CN(S(C)(=O)=O)c1ccccc12` [Compound 50], the Activity result is “E”. For `COCCN1CCC(C(=O)N[C@H](COCc2ccccc2)C(=O)N2CCC3(CC2)CN(S(C)(=O)=O)c2ccccc23)CC1` [Compound 33], the Activity entry is “C (C refers to a compound having antagonist activity of Ki>100 nM and <1500 nM in a cell based assay)”. For the compound `CC(C)(C)OC(=O)N[C@H](COCc1ccccc1)C(=O)N1CCC2(CC1)CN(S(C)(=O)=O)c1ccccc12` [Compound 9], the Activity result is “A (A refers to a compound having antagonist activity with Ki<100 nM in a cell based assay)”.

For `CS(=O)(=O)N1CC2(CCN(C(=O)[C@@H](COCc3ccccc3)NC(=O)Cn3ccnc3)CC2)c2ccccc21` [Compound 55], the Activity entry is given as “E”. With `CN1CCC(C(=O)N[C@@H](Cc2ccccc2)C(=O)N2CCC3(CC2)CN(S(C)(=O)=O)c2ccccc23)CC1` [Compound 42], the Activity entry was “C (C refers to a compound having antagonist activity of Ki>100 nM and <1500 nM in a cell based assay)”. `CS(=O)(=O)N1CC2(CCN(C(=O)[C@@H](COCc3ccccc3)NS(=O)(=O)CCN3C4CCCC3CC4)CC2)c2ccccc21` [Compound 151]: the Activity entry was “C (C refers to a compound having antagonist activity of Ki>100 nM and <1500 nM in a cell based assay)”.

On to `CNCC(=O)N[C@H](COCc1ccccc1)C(=O)N1CCC2(CC1)CN(S(C)(=O)=O)c1ccccc12` [Compound 70], for which the Activity entry is “E”.

`CS(=O)(=O)N1CC2(CCN(C(=O)[C@@H](COCc3ccccc3)NC(=S)Nc3cccnc3)CC2)c2ccccc21` [Compound 86]: the Activity entry is “E”.

Regarding `CN1CCC[C@@H]1C(=O)N[C@H](COCc1ccccc1)C(=O)N1CCC2(CC1)CN(S(C)(=O)=O)c1ccccc12` [Compound 32], the Activity entry was “C (C refers to a compound having antagonist activity of Ki>100 nM and <1500 nM in a cell based assay)”. As for `CN[C@H](C)C(=O)N[C@H](COCc1ccccc1)C(=O)N1CCC2(CC1)CN(S(C)(=O)=O)c1ccccc12` [Compound 130], the Activity entry is “B (B refers to a compound having agonist activity with EC50<100 nM in a cell based assay)”. On to `CC(C)N1CC=C(C(=O)N[C@H](COCc2ccccc2)C(=O)N2CCC3(CC2)CN(S(C)(=O)=O)c2ccccc23)CC1.Cl` [Compound 49], for which the Activity entry was “C (C refers to a compound having antagonist activity of Ki>100 nM and <1500 nM in a cell based assay)”. With `CN1CCC(C(=O)N[C@H](COCc2ccccc2)C(=O)N2CCC3(C=Cc4ccccc43)CC2)CC1` [Compound 3] the entry was “A (A refers to a compound having antagonist activity with Ki<100 nM in a cell based assay)”. Consider `CN(C)CC(=O)N[C@H](COCc1ccccc1)C(=O)N1CCC2(CC1)CNc1ccccc12` [Compound 68], for which the Activity result is listed as “E”.

As to `CS(=O)(=O)N1CC2(CCN(C(=O)[C@@H](COCc3ccccc3)NC(=O)C3=CCCNC3)CC2)c2ccccc21` [Compound 107], the Activity result is given as “E”. Consider `CN1CCC(C(=O)N[C@H](COCc2ccccc2)C(=O)N2CCC3(CC2)CN(S(C)(=O)=O)c2ccccc23)C1` (some centres unmarked) [Compound 115], for which the Activity result is recorded as “E”. With `CS(=O)(=O)N1CC2(CCN(C(=O)[C@@H](COCc3ccccc3)NC(=O)c3ccc(CN)cc3)CC2)c2ccccc21` [Compound 121] the entry was “E”.

As for `CN1CCC(N[C@H](COCc2ccccc2)C(=O)N2CCC3(CC2)CN(S(C)(=O)=O)c2ccccc23)CC1` [Compound 84], the Activity entry was “E”.

For `CN1CCC(C(=O)N[C@H](CC(=O)N2CCC3(CC2)CN(S(C)(=O)=O)c2ccccc23)Cc2c[nH]c3ccccc23)CC1` [Compound 141], the Activity entry is listed as “E”. As for `CN1C2CCC1CC(S(=O)(=O)N[C@H](COCc1ccccc1)C(=O)N1CCC3(CC1)CN(S(C)(=O)=O)c1ccccc13)C2` (some centres unmarked) [Compound 152], the Activity result is “C (C refers to a compound having antagonist activity of Ki>100 nM and <1500 nM in a cell based assay)”. For the compound `CN(C)CC(=O)N[C@H](Cc1ccccc1)C(=O)N1CCC2(CC1)CN(S(C)(=O)=O)c1ccccc12` [Compound 123], the Activity entry was “E”.

In the case of `CN(C)CC(=O)N[C@H](COCc1ccccc1)C(=O)N1CCC2(CC1)CN(S(C)(=O)=O)c1ccccc12` [Compound 20], the Activity entry is “C (C refers to a compound having antagonist activity of Ki>100 nM and <1500 nM in a cell based assay)”. On to `CN1CCC[C@H](C(=O)N[C@H](COCc2ccccc2)C(=O)N2CCC3(CC2)CN(S(C)(=O)=O)c2ccccc23)C1` [Compound 116], for which the Activity entry is “E”. To `CS(=O)(=O)N1CC2(CCN(C(=O)[C@@H](COCc3ccccc3)NC(=O)NCCN3CCOCC3)CC2)c2ccccc21` [Compound 92] belongs “E”. `CCN(CC)CCS(=O)(=O)N[C@H](COCc1ccccc1)C(=O)N1CCC2(CC1)CN(S(C)(=O)=O)c1ccccc12` [Compound 8]: the Activity entry was “D (D refers to a compound having antagonist activity with Ki, <100 nM and agonist activity with EC50<100 nM in a cell-based assay)”.

With `CC(OCc1ccccc1)[C@@H](CC(=O)N1CCC2(CC1)CN(S(C)(=O)=O)c1ccccc12)NC(=O)C1CCN(C)CC1` (some centres unmarked) [Compound 142], the Activity result is listed as “E”.

As to `CC(C)(C)CC(=O)N[C@H](COCc1ccccc1)C(=O)N1CCC2(CC1)CN(S(C)(=O)=O)c1ccccc12` [Compound 52], the Activity entry is on record as “E”. With `CN1CCN(CCS(=O)(=O)N[C@H](COCc2ccccc2)C(=O)N2CCC3(CC2)CN(S(C)(=O)=O)c2ccccc23)CC1` [Compound 46] the entry was “C (C refers to a compound having antagonist activity of Ki>100 nM and <1500 nM in a cell based assay)”. To `CN(C)C1(C(=O)N[C@H](COCc2ccccc2)C(=O)N2CCC3(CC2)CN(S(C)(=O)=O)c2ccccc23)CCCC1` [Compound 119] belongs “E”; to `CS(=O)(=O)N1CC2(CCN(C(=O)[C@@H](COCc3ccccc3)NC(=O)C3=CCNCC3)CC2)c2ccccc21` [Compound 16], “C (C refers to a compound having antagonist activity of Ki>100 nM and <1500 nM in a cell based assay)”; to `COC(=O)CC(=O)N1CC2(CCN(C(=O)[C@@H](COCc3ccccc3)NC(=O)CN(C)C)CC2)c2ccccc21` [Compound 72], “E”. With `CC(C)(C)OC(=O)N[C@H](COCc1ccccc1)C(=O)N1CCC2(CC1)CN(C(=O)CC(=O)O)c1ccccc12` [Compound 62], the Activity entry is given as “E”. To `CS(=O)(=O)N1CC2(CCN(C(=O)[C@@H](COCc3ccccc3)NS(=O)(=O)CCN3CCCC3)CC2)c2ccccc21.Cl` [Compound 28] belongs “C (C refers to a compound having antagonist activity of Ki>100 nM and <1500 nM in a cell based assay)”; to `CC(C)(C)NCCS(=O)(=O)N[C@H](COCc1ccccc1)C(=O)N1CCC2(CC1)CN(S(C)(=O)=O)c1ccccc12` [Compound 145], “E”. With `CS(=O)(=O)N1CC2(CCN(C(=O)[C@@H](COCc3ccccc3)NS(=O)(=O)CCN3CCCCC3)CC2)c2ccccc21.Cl` [Compound 37], the Activity entry was “C (C refers to a compound having antagonist activity of Ki>100 nM and <1500 nM in a cell based assay)”.

For `CN1CCC[C@H]1CC(=O)N[C@H](COCc1ccccc1)C(=O)N1CCC2(CC1)CN(S(C)(=O)=O)c1ccccc12` [Compound 113], the Activity entry is on record as “E”. As for `CC(C)(N)C(=O)N[C@H](COCc1ccccc1)C(=O)N1CCC2(CC1)CN(S(C)(=O)=O)c1ccccc12.CS(=O)(=O)O` [Compound 125], the Activity entry was “B (B refers to a compound having agonist activity with EC50<100 nM in a cell based assay)”. For `CN(C)CCCS(=O)(=O)N[C@H](COCc1ccccc1)C(=O)N1CCC2(CC1)CN(S(C)(=O)=O)c1ccccc12` [Compound 156], the Activity entry is reported as “E”.
